This is an account of results in ChEMBL document CHEMBL5724914, “Linking interpersonal differences in gut microbiota composition and drug biotransformation activity” (2024).

For data set [1] the following is noted: human gut metagenome, 24 h, 2 µM.
For data set [2] the following is noted: human gut metagenome, 24 h, 2 µM. This is another data set of the same source.
Data set [3] is described as follows: The drug is tested on Z-005 corresponding to metagenome with ENA study accession number: PRJEB37062 and ENA sample accession number: ERS12561805 for biotransformation under anaerobic condition. The drug concentrations were measured over 9 timepoints collected between 0 and 24 hours of incubation by liquid-chromatography-coupled mass spectrometry (LC–MS). As to conditions: 2 µM.

The nature of data set [4]: The drug is tested on Z-020 corresponding to rabbit gut metagenome with ENA study accession number: PRJEB37062 and ENA sample accession number: ERS12561819 for biotransformation under anaerobic condition. The drug concentrations were measured over 9 timepoints collected between 0 and 24 hours of incubation by liquid-chromatography-coupled mass spectrometry (LC–MS). The note with it: 2 µM.

The conditions of data set [5]: human gut metagenome, 24 h, 2 µM. The source holds these as a separate data set.
The conditions of data set [6]: human gut metagenome, 24 h, 2 µM. This is another data set of the same source.
The conditions of data set [7]: human gut metagenome, 24 h, 2 µM. This is another data set of the same source.
Data set [8] in a line: The drug is tested on Z-012 corresponding to metagenome with ENA study accession number: PRJEB37062 and ENA sample accession number: ERS12561812 for biotransformation under anaerobic condition. The drug concentrations were measured over 9 timepoints collected between 0 and 24 hours of incubation by liquid-chromatography-coupled mass spectrometry (LC–MS). As to conditions: 2 µM.

The nature of data set [9]: The drug is tested on WLS-077 corresponding to human gut metagenome with ENA study accession number: PRJEB37062 and ENA sample accession number: ERS12561750 for biotransformation under anaerobic condition. The drug concentrations were measured over 9 timepoints collected between 0 and 24 hours of incubation by liquid-chromatography-coupled mass spectrometry (LC–MS). As to conditions: 2 µM.

The conditions of data set [10]: human gut metagenome, 24 h, 2 µM. This is another data set of the same source.
The conditions of data set [11]: human gut metagenome, 24 h, 2 µM. The source holds these as a separate data set.
The conditions of data set [12]: human gut metagenome, 24 h, 2 µM. This is another data set of the same source.
The nature of data set [13]: The drug is tested on Z-008 corresponding to metagenome with ENA study accession number: PRJEB37062 and ENA sample accession number: ERS12561808 for biotransformation under anaerobic condition. The drug concentrations were measured over 9 timepoints collected between 0 and 24 hours of incubation by liquid-chromatography-coupled mass spectrometry (LC–MS). The note with it: 2 µM.

The nature of data set [14]: The drug is tested on Z-001 corresponding to mouse gut metagenome with ENA study accession number: PRJEB37062 and ENA sample accession number: ERS12561801 for biotransformation under anaerobic condition. The drug concentrations were measured over 9 timepoints collected between 0 and 24 hours of incubation by liquid-chromatography-coupled mass spectrometry (LC–MS). The note with it: 2 µM.

Data set [15] can be described thus: The drug is tested on WLS-027 corresponding to human gut metagenome with ENA study accession number: PRJEB37062 and ENA sample accession number: ERS12561744 for biotransformation under anaerobic condition. The drug concentrations were measured over 9 timepoints collected between 0 and 24 hours of incubation by liquid-chromatography-coupled mass spectrometry (LC–MS). As to conditions: 2 µM.

For data set [16] the following is noted: human gut metagenome, 24 h, 2 µM. This is another data set of the same source.
The conditions of data set [17]: human gut metagenome, 24 h, 2 µM. This is another data set of the same source.
The nature of data set [18]: The drug is tested on Z-022 corresponding to mouse gut metagenome with ENA study accession number: PRJEB37062 and ENA sample accession number: ERS12561821 for biotransformation under anaerobic condition. The drug concentrations were measured over 9 timepoints collected between 0 and 24 hours of incubation by liquid-chromatography-coupled mass spectrometry (LC–MS). As to conditions: 2 µM.

Data set [19] is described as follows: The drug is tested on Z-030 corresponding to mouse gut metagenome with ENA study accession number: PRJEB37062 and ENA sample accession number: ERS12561829 for biotransformation under anaerobic condition. The drug concentrations were measured over 9 timepoints collected between 0 and 24 hours of incubation by liquid-chromatography-coupled mass spectrometry (LC–MS). As to conditions: 2 µM.

Data set [20] is described as follows: The drug is tested on Z-027 corresponding to metagenome with ENA study accession number: PRJEB37062 and ENA sample accession number: ERS12561826 for biotransformation under anaerobic condition. The drug concentrations were measured over 9 timepoints collected between 0 and 24 hours of incubation by liquid-chromatography-coupled mass spectrometry (LC–MS). As to conditions: 2 µM.
Note: call rule not given here.

Turning to `Cc1cc(C)cc(OCC2CNC(=O)O2)c1` (stereo not given) [METAXALONE], the “Bacterial Biotransformation” value in data set [1] was “Compound metabolized”; in [2], “Compound metabolized”; in [3], “Compound NOT metabolized”; in data set [4], “Compound NOT metabolized”; in [5] it was “Compound NOT metabolized”; in data set [6], “Compound NOT metabolized”. Also, the “Bacterial Biotransformation” value in data set [7] is “Compound NOT metabolized”; in [8], “Compound NOT metabolized”; in [9] it was “Compound metabolized”; in data set [10], “Compound metabolized”; in data set [11], “Compound metabolized”; in data set [12], “Compound metabolized”. Moreover, the “Bacterial Biotransformation” value is on record as “Compound NOT metabolized” in [13]; “Compound NOT metabolized” in data set [14]; “Compound metabolized” in data set [15]; “Compound metabolized” in [16]; “Compound metabolized” in data set [17]; “Compound NOT metabolized” in [18]. Moreover, the “Bacterial Biotransformation” value in data set [19] is “Compound NOT metabolized”; in data set [20] it was “Compound metabolized”.

Consider `COc1ccc([C@@H]2Sc3ccccc3N(CCN(C)C)C(=O)[C@@H]2OC(C)=O)cc1` [DILTIAZEM], for which the “Bacterial Biotransformation” value in data set [1] was “Compound NOT metabolized”; in [2] it was “Compound metabolized”; in data set [3], “Compound NOT metabolized”; in data set [4] it was “Compound metabolized”; in data set [5] it was “Compound metabolized”; in [6], “Compound metabolized”. Also, the “Bacterial Biotransformation” value in data set [7] is listed as “Compound metabolized”; in data set [8], “Compound metabolized”; in data set [9] it was “Compound NOT metabolized”; in [10] it was “Compound metabolized”; in data set [11], “Compound metabolized”; in data set [12], “Compound NOT metabolized”. Besides, the “Bacterial Biotransformation” value is listed as “Compound NOT metabolized” in [13]; “Compound metabolized” in [14]; “Compound metabolized” in data set [15]; “Compound metabolized” in [16]; “Compound metabolized” in data set [17]; “Compound metabolized” in [18]. In addition, the “Bacterial Biotransformation” value in data set [19] and in data set [20] was “Compound NOT metabolized” each time.

With `CC(C)(C)NC(=O)[C@H]1CC[C@H]2[C@@H]3CC[C@H]4NC(=O)C=C[C@]4(C)[C@H]3CC[C@]12C` [FINASTERIDE], the “Bacterial Biotransformation” value is “Compound metabolized” in data set [1]; “Compound metabolized” in [2]; “Compound metabolized” in data set [3]; “Compound metabolized” in [4]; “Compound NOT metabolized” in [5]; “Compound metabolized” in [6]. Besides, the “Bacterial Biotransformation” value in [7], in [8], in data set [9], in data set [10], in data set [11] and in [12] was “Compound metabolized” throughout. In addition, the “Bacterial Biotransformation” value in data set [13] is on record as “Compound NOT metabolized”; in data set [14], “Compound NOT metabolized”; in data set [15], “Compound metabolized”; in data set [16], “Compound metabolized”; in [17] it was “Compound metabolized”; in data set [18] it was “Compound metabolized”. Besides, the “Bacterial Biotransformation” value was “Compound NOT metabolized” in data set [19] and “Compound metabolized” in data set [20].

Regarding `CC(CCc1ccccc1)NCC(O)c1ccc(O)c(C(N)=O)c1` (stereo not given) [LABETALOL], the “Bacterial Biotransformation” value is on record as “Compound NOT metabolized” in data set [1]; “Compound NOT metabolized” in [2]; “Compound NOT metabolized” in [3]; “Compound NOT metabolized” in [4]; “Compound NOT metabolized” in [5]; “Compound metabolized” in data set [6]. Moreover, the “Bacterial Biotransformation” value in data set [7] is on record as “Compound NOT metabolized”; in data set [8], “Compound NOT metabolized”; in data set [9], “Compound NOT metabolized”; in data set [10], “Compound NOT metabolized”; in data set [11], “Compound metabolized”; in data set [12], “Compound NOT metabolized”. Further, the “Bacterial Biotransformation” value in data set [13] is “Compound NOT metabolized”; in data set [14], “Compound NOT metabolized”; in data set [15], “Compound NOT metabolized”; in [16], “Compound NOT metabolized”; in [17] it was “Compound NOT metabolized”; in data set [18], “Compound metabolized”. The “Bacterial Biotransformation” value in data set [19] was “Compound NOT metabolized”; in [20], “Compound metabolized”.

Take `CC(C)(C)NCC(O)COc1cccc2c1CC(O)C(O)C2` (stereo not given) [NADOLOL]: the “Bacterial Biotransformation” value in [1] is on record as “Compound NOT metabolized”; in [2], “Compound NOT metabolized”; in data set [3], “Compound NOT metabolized”; in data set [4] it was “Compound NOT metabolized”; in [5], “Compound NOT metabolized”; in data set [6], “Compound metabolized”. The “Bacterial Biotransformation” value in data set [7] was “Compound NOT metabolized”; in [8], “Compound NOT metabolized”; in data set [9] it was “Compound metabolized”; in data set [10], “Compound NOT metabolized”; in [11], “Compound metabolized”; in data set [12], “Compound NOT metabolized”. For the same compound, the “Bacterial Biotransformation” value in [13] was “Compound NOT metabolized”; in [14], “Compound metabolized”; in data set [15] it was “Compound NOT metabolized”; in data set [16] it was “Compound NOT metabolized”; in [17] it was “Compound metabolized”; in data set [18], “Compound metabolized”. Also, the “Bacterial Biotransformation” value in [19] and in [20] was “Compound NOT metabolized” each time.

On to `CCN(CC)CCNC(=O)c1cc(S(C)(=O)=O)ccc1OC` [TIAPRIDE], for which the “Bacterial Biotransformation” value is listed as “Compound NOT metabolized” in [1]; “Compound NOT metabolized” in data set [2]; “Compound NOT metabolized” in data set [3]; “Compound NOT metabolized” in data set [4]; “Compound NOT metabolized” in [5]; “Compound metabolized” in data set [6]. Also, the “Bacterial Biotransformation” value in data set [7] is recorded as “Compound NOT metabolized”; in data set [8], “Compound NOT metabolized”; in data set [9] it was “Compound NOT metabolized”; in data set [10], “Compound NOT metabolized”; in data set [11], “Compound metabolized”; in [12], “Compound NOT metabolized”. The “Bacterial Biotransformation” value is recorded as “Compound NOT metabolized” in data set [13]; “Compound metabolized” in data set [14]; “Compound NOT metabolized” in data set [15]; “Compound NOT metabolized” in [16]; “Compound metabolized” in [17]; “Compound NOT metabolized” in data set [18]. Also, the “Bacterial Biotransformation” value in [19] and in [20] was “Compound NOT metabolized” throughout.
